One assay has as its system A2780 cells. Briefly: In-vitro cell proliferation assay (SRB), A2780 cells. To be noted: Homo sapiens, A2780, 72 h, A2780 cells, 72 hours, read-out: A2780 IC50. In kind it is cell-based. Put shortly:
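Growth inhibition was derived from background-corrected SRB absorbance (570 nm), measured on cells fixed in 6% TCA after three days of compound treatment under 5% CO2 at 37° C.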

A further assay concerns the target T1, NAMPT (Homo sapiens, UniProt P43490).
T1 construct: His tag; host or cells: E. coli
Briefly: Biochemical inhibition assay: NAMPT enzymatic reaction, NMN quantified by mass spectrometry. Particulars: read-out: Biochem IC50. In short, it runs like this:
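Inhibition of E. coli-expressed His-tagged human NAMPT, measured as NMN formation by mass spectrometry after a 30 min room-temperature reaction containing 1 μM NAM, 100 μM PRPP and 2.5 mM ATP.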

Structures are written as SMILES. Read-outs that look alike come from different tables or passages of the source. Bounds are passed on as bounds.

Here are results for 42 compounds from patent publication US12336981B2, “Compounds and compositions for the inhibition of NAMPT” (Valo Health, Inc., priority 2010, dated 2025).

T1 sequence (P43490 whole entry): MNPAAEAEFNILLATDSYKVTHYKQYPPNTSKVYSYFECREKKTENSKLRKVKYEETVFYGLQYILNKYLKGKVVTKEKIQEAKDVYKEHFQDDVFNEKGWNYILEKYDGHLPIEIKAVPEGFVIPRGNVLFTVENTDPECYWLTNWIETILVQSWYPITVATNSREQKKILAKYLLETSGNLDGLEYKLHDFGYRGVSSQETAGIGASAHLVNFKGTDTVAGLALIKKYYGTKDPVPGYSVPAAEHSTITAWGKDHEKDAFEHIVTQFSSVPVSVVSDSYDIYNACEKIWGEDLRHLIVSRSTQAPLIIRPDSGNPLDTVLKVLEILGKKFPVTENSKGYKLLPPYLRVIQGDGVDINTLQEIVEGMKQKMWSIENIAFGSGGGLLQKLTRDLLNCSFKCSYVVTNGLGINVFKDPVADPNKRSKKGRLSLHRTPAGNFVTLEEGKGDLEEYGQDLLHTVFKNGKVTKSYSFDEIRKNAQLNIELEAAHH

In general, IC50 refers to the point on the concentration scale where inhibition reaches its midpoint. For the compound `COc1cc(F)ccc1S(=O)(=O)c1ccc(CNC(=O)c2ccc3nccn3c2)cc1` [N-({4-[(4-fluoro-2-methoxybenzene)sulfonyl]phenyl}methyl)imidazo[1,2-a]pyridine-6-carboxamide], the IC50 is 7.05 nM in the assay on A2780 cells (SRB) and 19.3 nM at NAMPT (NAMPT enzymatic reaction).

Regarding `CCCCOc1cc(F)ccc1S(=O)(=O)c1ccc(CNC(=O)c2cnc3[nH]ncc3c2)cc1` [N-({4-[(2-butoxy-4-fluorobenzene)sulfonyl]phenyl}methyl)-1H-pyrazolo[3,4-b]pyridine-5-carboxamide], the IC50 with A2780 cells (SRB) is 100 to 1000 nM; on NAMPT (NAMPT enzymatic reaction), 176 nM.

Consider `CCOc1ccc(Cl)cc1S(=O)(=O)c1ccc(CNC(=O)c2ccc3nccn3c2)cc1`, for which the IC50 with A2780 cells (SRB) is 0.5 nM; at NAMPT (NAMPT enzymatic reaction) it was 2.2 nM.

Consider `COc1c(F)cccc1S(=O)(=O)c1ccc(CNC(=O)c2cc3cnccc3[nH]2)cc1`, for which the IC50 with A2780 cells (SRB) was found to be 6.3 nM; at NAMPT (NAMPT enzymatic reaction), 32.4 nM.

Regarding `O=C(NCc1ccc(S(=O)(=O)c2nccs2)cc1)c1cc2ccncc2s1` [N-{[4-(1,3-thiazole-2-sulfonyl)phenyl]methyl}thieno[2,3-c]pyridine-2-carboxamide], the results for the IC50 in the assay on A2780 cells (SRB) and on NAMPT (NAMPT enzymatic assay) were 75.1 nM and 14.4 nM, respectively.

Take `CC(=O)c1cccc(S(=O)(=O)c2ccc(CNC(=O)c3cnc4nccn4c3)cc2)c1`: the results for the IC50 in the assay on A2780 cells (SRB) and on NAMPT (NAMPT enzymatic reaction) were 10.5 nM and 1.8 nM, respectively.

`O=C(NCc1ccc(S(=O)(=O)c2ccc(OC(F)(F)F)c(F)c2)cc1)c1cc2ccncc2o1`: the IC50 worked out at 15.6 nM with A2780 cells (SRB) and 10 nM on NAMPT (NAMPT enzymatic assay).

For `N#Cc1cccc(S(=O)(=O)c2ccc(CNC(=O)c3cnc4nccn4c3)cc2)c1`, the IC50 with A2780 cells (SRB) amounted to 19.2 nM; at NAMPT (NAMPT enzymatic reaction), 5.9 nM.

Regarding `O=C(NCC1CCN(S(=O)(=O)c2ccccc2)CC1)c1cc2cnccc2[nH]1` [N-{[1-(benzenesulfonyl)piperidin-4-yl]methyl}-1H-pyrrolo[3,2-c]pyridine-2-carboxamide], the IC50 was 9 nM with A2780 cells (SRB assay) and 15 nM on NAMPT (NAMPT enzymatic reaction).

Turning to `CCOCc1ccc(S(=O)(=O)c2ccc(CNC(=O)c3cnc4nccn4c3)cc2)cc1`, the IC50 in the assay with A2780 cells (SRB) is 5.2 nM; on NAMPT (NAMPT enzymatic assay) it was 2.7 nM.

With `COc1cc(Cl)ccc1S(=O)(=O)c1ccc(CNC(=O)c2cc3cnccc3[nH]2)cc1` [N-({4-[(4-chloro-2-methoxybenzene)sulfonyl]phenyl}methyl)-1H-pyrrolo[3,2-c]pyridine-2-carboxamide], the IC50 with A2780 cells (SRB assay) worked out at 3 nM; at NAMPT (NAMPT enzymatic reaction) it was 22 nM.

For `CC(C)(C)c1cccc(S(=O)(=O)c2ccc(CNC(=O)c3cc4ccncc4s3)cc2)c1`, the IC50 amounted to 9.1 nM in the assay on A2780 cells (SRB) and 10.5 nM at NAMPT (NAMPT enzymatic reaction).

On to `CCOc1cccc(S(=O)(=O)c2ccc(CNC(=O)c3cnc4[nH]ncc4c3)cc2)c1`, for which the IC50 in the assay with A2780 cells (SRB) turned out to be 19 nM; on NAMPT (NAMPT enzymatic reaction), 14.6 nM.

In the case of `Cc1ccccc1S(=O)(=O)c1ccc(CNC(=O)c2ccc3nccn3c2)cc1` [N-({4-[(2-methylbenzene)sulfonyl]phenyl}methyl)imidazo[1,2-a]pyridine-6-carboxamide], the IC50 with A2780 cells (SRB) is 91.2 nM; on NAMPT (NAMPT enzymatic reaction), 66.9 nM.

Regarding `Cc1ncccc1S(=O)(=O)c1ccc(CNC(=O)c2cnc3nccn3c2)cc1` [N-{[4-(2-methylpyridine-3-sulfonyl)phenyl]methyl}imidazo[1,2-a]pyrimidine-6-carboxamide], the IC50 with A2780 cells (SRB) is 100 to 1000 nM; on NAMPT (NAMPT enzymatic assay), 20.8 nM.

Regarding `COc1ccc(S(=O)(=O)c2ccc(CNC(=O)c3cc4ccncc4o3)cc2)nc1` [N-{[4-(5-methoxypyridine-2-sulfonyl)phenyl]methyl}furo[2,3-c]pyridine-2-carboxamide], the IC50 in the assay on A2780 cells (SRB) is 31.6 nM; on NAMPT (NAMPT enzymatic assay) it was 7.9 nM.

Take `Cc1cncc(S(=O)(=O)c2ccc(CNC(=O)c3cc4ccncc4s3)cc2)n1` [N-{[4-(6-methylpyrazine-2-sulfonyl)phenyl]methyl}thieno[2,3-c]pyridine-2-carboxamide]: the IC50 in the assay with A2780 cells (SRB) was 5.1 nM; at NAMPT (NAMPT enzymatic assay), 4.8 nM.

Regarding `CC(=O)c1ccccc1S(=O)(=O)c1ccc(CNC(=O)c2cc3ccncc3s2)cc1` [N-({4-[(2-acetylbenzene)sulfonyl]phenyl}methyl)thieno[2,3-c]pyridine-2-carboxamide], the IC50 with A2780 cells (SRB assay) and at NAMPT (NAMPT enzymatic reaction) was 1 nM each time.

Regarding `COc1ccc(OC(F)(F)F)cc1S(=O)(=O)c1ccc(CNC(=O)c2cnc3nccn3c2)cc1`, the values for the IC50 in the assay on A2780 cells (SRB) and on NAMPT (NAMPT enzymatic assay) were 5.8 nM and below 0.65 nM, respectively.

With `CCS(=O)(=O)c1cccc(S(=O)(=O)c2ccc(CNC(=O)c3cnc4nccn4c3)cc2)c1`, the figures for the IC50 with A2780 cells (SRB) and on NAMPT (NAMPT enzymatic assay) were 64.5 nM and 2.7 nM, respectively.

Turning to `CC(=O)c1cccc(S(=O)(=O)c2ccc(CNC(=O)c3cc4ccncc4s3)cc2)c1` [N-({4-[(3-acetylbenzene)sulfonyl]phenyl}methyl)thieno[2,3-c]pyridine-2-carboxamide], the IC50 with A2780 cells (SRB assay) turned out to be 2.6 nM; at NAMPT (NAMPT enzymatic reaction), 4 nM.

As to `CCCCOc1ccc(S(=O)(=O)c2ccc(CNC(=O)c3cc4cnccc4[nH]3)cc2)cc1Cl`, the IC50 in the assay with A2780 cells (SRB) was 12.4 nM; on NAMPT (NAMPT enzymatic reaction) it was 17.8 nM.

As for `O=C(NCc1ccc(S(=O)(=O)c2ccccc2)cc1)N1CCc2[nH]ncc2C1` [N-{[4-(benzenesulfonyl)phenyl]methyl}-1H,4H,5H,6H,7H-pyrazolo[4,3-c]pyridine-5-carboxamide], the IC50 with A2780 cells (SRB assay) and on NAMPT (NAMPT enzymatic reaction) was above 2000 nM in each case.

Turning to `COc1cccc(S(=O)(=O)c2ccc(CNC(=O)c3cc4cnccc4[nH]3)cc2)c1OC`, the values for the IC50 in the assay on A2780 cells (SRB) and at NAMPT (NAMPT enzymatic reaction) were 4.9 nM and 11.7 nM, respectively.

As for `COc1cc(C)cc(S(=O)(=O)c2ccc(CNC(=O)c3cc4cnccc4[nH]3)cc2)c1`, the IC50 stood at 2.8 nM with A2780 cells (SRB) and 9.6 nM on NAMPT (NAMPT enzymatic reaction).

Consider `CC(C)NC(=O)c1cc(S(=O)(=O)c2ccc(CNC(=O)c3cc4ccncc4s3)cc2)ccc1F`, for which the values for the IC50 in the assay on A2780 cells (SRB) and on NAMPT (NAMPT enzymatic assay) were 6.8 nM and 21.3 nM, respectively.

On to `CCCCOc1ccc(S(=O)(=O)c2ccc(CNC(=O)c3cc4ccncc4s3)cc2)cc1Cl`, for which the IC50 in the assay with A2780 cells (SRB) came out at 12.5 nM; at NAMPT (NAMPT enzymatic reaction) it was 4.8 nM.

Take `Cc1cc(C)cc(S(=O)(=O)c2ccc(CNC(=O)c3ccc4nccn4c3)cc2)c1` [N-({4-[(3,5-dimethylbenzene)sulfonyl]phenyl}methyl)imidazo[1,2-a]pyridine-6-carboxamide]: the IC50 in the assay on A2780 cells (SRB) worked out at 3.17 nM; at NAMPT (NAMPT enzymatic reaction) it was 6.76 nM.

Turning to `CCCCOc1cccc(S(=O)(=O)c2ccc(CNC(=O)c3cnc4[nH]ncc4c3)cc2)c1` [N-({4-[(3-butoxybenzene)sulfonyl]phenyl}methyl)-1H-pyrazolo[3,4-b]pyridine-5-carboxamide], the IC50 is 67.5 nM with A2780 cells (SRB) and 38.4 nM at NAMPT (NAMPT enzymatic reaction).

With `O=C(NCc1ccc(S(=O)(=O)c2ccc(Cl)cc2C(F)(F)F)cc1)c1cc2cnccc2[nH]1`, the IC50 is 17.4 nM in the assay with A2780 cells (SRB) and 42.2 nM at NAMPT (NAMPT enzymatic assay).

`COc1cc(S(=O)(=O)c2ccc(CNC(=O)c3cnc4[nH]ncc4c3)cc2)ccc1Cl`: the IC50 was determined as 13 nM in the assay with A2780 cells (SRB) and 12.7 nM at NAMPT (NAMPT enzymatic reaction).

Take `CC(C)c1cccc(S(=O)(=O)c2ccc(CNC(=O)c3cc4ccncc4s3)cc2)c1` [N-[(4-{[3-(propan-2-yl)benzene]sulfonyl}phenyl)methyl]thieno[2,3-c]pyridine-2-carboxamide]: the IC50 in the assay on A2780 cells (SRB assay) stood at 2.6 nM; at NAMPT (NAMPT enzymatic reaction), 9 nM.

Turning to `O=C(NCc1ccc(S(=O)(=O)c2cccc(C(F)(F)F)n2)cc1)c1cnc2nccn2c1` [N-({4-[6-(trifluoromethyl)pyridine-2-sulfonyl]phenyl}methyl)imidazo[1,2-a]pyrimidine-6-carboxamide], the IC50 was found to be 20.4 nM in the assay on A2780 cells (SRB) and 11.4 nM on NAMPT (NAMPT enzymatic assay).

Take `O=C(NCc1ccc(S(=O)(=O)c2cccc(C(=O)NC3CCCC3)c2)cc1)c1cnc2nccn2c1`: the IC50 in the assay on A2780 cells (SRB) is 48.3 nM; on NAMPT (NAMPT enzymatic assay), 4.7 nM.

Consider `O=C(NCc1ccc(S(=O)(=O)c2cccnc2N2CCOCC2)cc1)c1cnc2nccn2c1` [N-({4-[2-(morpholin-4-yl)pyridine-3-sulfonyl]phenyl}methyl)imidazo[1,2-a]pyrimidine-6-carboxamide], for which the IC50 was 100 to 1000 nM in the assay with A2780 cells (SRB) and 31.2 nM on NAMPT (NAMPT enzymatic assay).

As for `O=C(NCc1ccc(S(=O)(=O)c2cc(F)cc(C(F)(F)F)c2)cc1)c1cnc2[nH]ncc2c1` [N-[(4-{[3-fluoro-5-(trifluoromethyl)benzene]sulfonyl}phenyl)methyl]-1H-pyrazolo[3,4-b]pyridine-5-carboxamide], the IC50 worked out at 3.45 nM in the assay on A2780 cells (SRB) and 11.2 nM at NAMPT (NAMPT enzymatic assay).

Consider `O=C(NCc1ccc(S(=O)(=O)c2cncc(C(F)(F)F)c2)cc1)c1cnc2[nH]ncc2c1` [N-({4-[5-(trifluoromethyl)pyridine-3-sulfonyl]phenyl}methyl)-1H-pyrazolo[3,4-b]pyridine-5-carboxamide], for which the IC50 with A2780 cells (SRB) turned out to be 4 nM; on NAMPT (NAMPT enzymatic assay), 11 nM.

For `O=C(NCc1ccc(S(=O)(=O)c2ccccc2)cc1)c1ccc2ncccc2n1` [N-{[4-(benzenesulfonyl)phenyl]methyl}-1,5-naphthyridine-2-carboxamide], the IC50 in the assay with A2780 cells (SRB assay) was above 10000 nM; at NAMPT (NAMPT enzymatic reaction) it was 875 nM.

As to `Cc1cc(C(F)(F)F)ccc1S(=O)(=O)c1ccc(CNC(=O)c2cnc3nccn3c2)cc1`, the results for the IC50 in the assay with A2780 cells (SRB) and on NAMPT (NAMPT enzymatic assay) were 51.1 nM and 7.1 nM, respectively.

Consider `CCCOc1ccc(S(=O)(=O)c2ccc(CNC(=O)c3ccc4nccn4c3)cc2)cc1F`, for which the figures for the IC50 in the assay with A2780 cells (SRB) and at NAMPT (NAMPT enzymatic reaction) were 4.4 nM and 22.1 nM, respectively.

Consider `Cn1cc2cc(S(=O)(=O)c3ccc(CNC(=O)c4cnc5nccn5c4)cc3)ccc2n1` [N-{[4-(2-methyl-2H-indazole-5-sulfonyl)phenyl]methyl}imidazo[1,2-a]pyrimidine-6-carboxamide], for which the values for the IC50 in the assay with A2780 cells (SRB) and on NAMPT (NAMPT enzymatic assay) were 8.2 nM and 1.2 nM, respectively.

Consider `O=C(NCc1ccc(S(=O)(=O)c2ccccc2)cc1)c1cnc2[nH]ccc2c1` [N-{[4-(benzenesulfonyl)phenyl]methyl}-1H-pyrrolo[2,3-b]pyridine-5-carboxamide], for which the IC50 with A2780 cells (SRB assay) is above 30000 nM; at NAMPT (NAMPT enzymatic reaction), 1910 nM.
